# Values of other authors, collected in patent US9205152B2, “Melt-blended protein composition” (Kimberly-Clark Worldwide, Inc., priority 2010, dated 2015).
# Conditions: pH prior to incorporation into the composition
structure (smiles),measurement,value
OCC(O)CO [glycerol],pH,about 6
